From patent US20230036854A1, “HETEROCYCLIC SPIRO-COMPOUNDS AS AM2 RECEPTOR INHIBITORS” (THE UNIVERSITY OF SHEFFIELD, priority 2018, published 2023)

molecular target: T1, AM2 receptor (1321N1 cells transfected with CALCRL+RAMP3) (Homo sapiens, UniProt O60896+Q16602); assay: AM2 receptor inhibition, LANCE cAMP agonist-antagonist competition assay; assay type: cell-based; settings: inhibition of AM induced cAMP activation, read-out: AM2 D2 protocol: pIC50 (converted)
T1 construct: host or cells: 1321N1 cells
T1 sequence (Q16602 23-461): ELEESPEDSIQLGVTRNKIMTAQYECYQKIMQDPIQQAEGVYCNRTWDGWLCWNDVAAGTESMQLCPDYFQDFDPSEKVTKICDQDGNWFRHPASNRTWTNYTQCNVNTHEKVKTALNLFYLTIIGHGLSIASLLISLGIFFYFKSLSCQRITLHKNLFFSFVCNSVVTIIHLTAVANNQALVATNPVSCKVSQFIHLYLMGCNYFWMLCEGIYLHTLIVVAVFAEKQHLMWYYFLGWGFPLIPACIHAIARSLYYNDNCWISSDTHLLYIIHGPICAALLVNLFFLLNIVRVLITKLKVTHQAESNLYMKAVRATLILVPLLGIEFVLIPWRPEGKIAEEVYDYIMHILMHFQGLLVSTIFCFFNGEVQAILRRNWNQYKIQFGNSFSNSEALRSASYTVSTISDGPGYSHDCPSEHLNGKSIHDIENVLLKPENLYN
T1 sequence (O60896 24-148): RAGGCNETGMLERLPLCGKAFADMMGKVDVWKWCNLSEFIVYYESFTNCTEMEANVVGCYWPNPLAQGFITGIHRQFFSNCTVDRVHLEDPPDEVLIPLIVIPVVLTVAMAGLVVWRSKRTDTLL
Protocol: Compounds were assessed for their ability to inhibit ligand-induced elevations of cAMP, using the Perkin Elmer LANCE cAMP assay using commercially-available cells expressing a specific receptor of interest using the following general procedure:
Compounds were prepared in dimethyl sulfoxide (DMSO—99.9% pure) (Sigma Aldrich, Cat #: D4540) added to powder stocks to produce a 20 mM solution (100% DMSO) that was sonicated at 37° C. for 10 minutes to fully dissolve the compounds. The 20 mM stocks were diluted further in DMSO to produce a 2 mM solution that was sonicated at 37° C. for 10 minutes. 2 mM stocks were dissolved in assay/stimulation buffer to produce a 400 μM solution that was sonicated at 37° C. for 10 minutes for all cAMP assays. All stocks were stored at −20° C. Then serial dilution (Dilution factor: 10) was performed to achieve the desire experimental concentrations.
Competition assays were performed according to the manufactures instructions using LANCE® TR-FRET cAMP assay kit (Perkin Elmer, Cat #: AD0264). Serial dilutions (3 μl/well) of the molecules were plated in a 384-well OptiPlate (Perkin Elmer, Cat #: 6007299) in duplicates. Appropriate controls (100% stimulation: Forskolin and 0% stimulation: Vehicle control) (6 μl/well) were included in each plate for data normalization. Following the compound addition, 6 μl of G-protein coupled receptor overexpressing cells/Alexa Fluor antibody solution (1:100 dilution) was added in each well at a desired density of 2500cells/well. The overexpressing cell lines were purchased from DiscoveRx, Birmingham, UK. After spinning the plate at 1000 rpm for 1 minute and vortexing briefly, the cells were pre-incubated with the compounds for 30 minutes at room temperature (covered). Then 3 μl of the equivalent peptide ligand (EC50 dose) was added to all the wells except vehicle and forskolin controls. The plate were then spun down at 1000 rpm for 1 minute and once finished they were vortexed briefly and covered. Cells were stimulated in the presence of the ligands for 15 minutes at room temperature. After stimulation 12 μl of detection mix (Europium-Chelate streptavidin/biotinylated cAMP tracer solution) was added to all wells and incubated for 60 minutes at room temperature. The plate was then read on the Enspire multimode Plate reader (Perkin Elmer), at; 320/340 nm excitation and 615/665 nm emission was recorded.
Assay/Stimulation Buffer (30 mL)—pH 7.4 • 28 mL Hank's Balanced salt solution (+MgCl2, +CaCl2)—(Thermo Fisher Cat #:14170112) • 150 μl HEPES (1M)—(Thermo Fisher Cat #:15630080) • 400 μl Stabilizer (DTPA) Purified BSA (7.5%)—(Perkin Elmer, Cat #: CR84-100)
The ability of a compound to inhibit the AM induced cAMP activation in AM2 receptor-expressing cells (1321N1 cells transfected with CALCRL+RAMP3, sourced from DiscoverX catalogue number 95-0169C6) was assessed using the protocol above.

Row | Structure (SMILES) | IC50
1 | CNCc1ccccc1CN(CC(=O)Nc1ccc2c(c1)CC1(C2)C(=O)Nc2ncccc21)C(=O)C1(C)CCN(C(C)=O)CC1 (stereo not drawn) [Example 1, 1-Acetyl-4-methyl-N-(2-((methylamino)methyl)benzyl)-N-(2-oxo-2-((2′-oxo-1,1′,2′,3-tetrahydrospiro[indene-2,3′-pyrrolo[2,3-b]pyridin]-5-yl)amino)ethyl)piperidine-4-carboxamide 2,2,2-trifluoroacetate] | 2.57 nM
2 | CNCc1ccccc1CN(CC(=O)Nc1ccc2c(c1)CC1(C2)C(=O)Nc2ncccc21)C(=O)C1(C)CCNCC1 (stereo not drawn) [Example 2, 4-Methyl-N-(2-((methylamino)methyl)benzyl)-N-(2-oxo-2-((2′-oxo-1,1′,2′,3-tetrahydrospiro[indene-2,3′-pyrrolo[2,3-b]pyridin]-5-yl)amino)ethyl)piperidine-4-carboxamide bis(2,2,2-trifluoroacetate)] | 3.39 nM
3 | CNCc1ccccc1CN(CC(=O)Nc1ccc2c(c1)C[C@@]1(C2)C(=O)Nc2ncccc21)C(=O)C1(C)CCNCC1 [Example 3, (R)-4-Methyl-N-(2-((methylamino)methyl)benzyl)-N-(2-oxo-2-((2′-oxo-1,1′,2′,3-tetrahydrospiro[indene-2,3′-pyrrolo[2,3-b]pyridin]-5-yl)amino)ethyl)piperidine-4-carboxamide] | 7.76 nM
4 | CNCc1ccccc1CN(CC(=O)Nc1ccc2c(c1)CC1(C2)C(=O)Nc2ncccc21)C(=O)C1(C)CCN(C(=O)c2ccccc2)CC1 (stereo not drawn) [Example 4, 1-Benzoyl-4-methyl-N-(2-((methylamino)methyl)benzyl)-N-(2-oxo-2-((2′-oxo-1,1′,2′,3-tetrahydrospiro[indene-2,3′-pyrrolo[2,3-b]pyridin]-5-yl)amino)ethyl)piperidine-4-carboxamide] | 2.19 nM
5 | CNCc1ccccc1CN(CC(=O)Nc1ccc2c(c1)CC1(C2)C(=O)Nc2ncccc21)C(=O)C1(C)CCN(C(=O)C2CCC2)CC1 (stereo not drawn) [Example 5, 1-(Cyclobutanecarbonyl)-4-methyl-N-(2-((methylamino)methyl)benzyl)-N-(2-oxo-2-((2′-oxo-1,1′,2′,3-tetrahydrospiro[indene-2,3′-pyrrolo[2,3-b]pyridin]-5-yl)amino)ethyl)piperidine-4-carboxamide] | 1.48 nM
6 | CNCc1ccccc1CN(CC(=O)Nc1ccc2c(c1)CC1(C2)C(=O)Nc2ncccc21)C(=O)C1(C)CCN(C(=O)c2ccncc2)CC1 (stereo not drawn) [Example 6, 1-Isonicotinoyl-4-methyl-N-(2-((methylamino)methyl)benzyl)-N-(2-oxo-2-((2′-oxo-1,1′,2′,3-tetrahydrospiro[indene-2,3′-pyrrolo[2,3-b]pyridin]-5-yl)amino)ethyl)piperidine-4-carboxamide] | 2.29 nM
7 | CNCc1ccccc1CN(CC(=O)Nc1ccc2c(c1)C[C@@]1(C2)C(=O)Nc2ncccc21)C(=O)C1(C)CCN(C(=O)CC2CCNCC2)CC1 [Example 7, (R)-4-Methyl-N-(2-((methylamino)methyl)benzyl)-N-(2-oxo-2-((2′-oxo-1,1′,2′,3-tetrahydrospiro[indene-2,3′-pyrrolo[2,3-b]pyridin]-5-yl)amino)ethyl)-1-(2-(piperidin-4-yl)acetyl)piperidine-4-carboxamide] | 4.07 nM
8 | CNCc1ccccc1CN(CC(=O)Nc1ccc2c(c1)C[C@@]1(C2)C(=O)Nc2ncccc21)C(=O)C1(C)CCN(C(=O)C[C@@H]2CCNC2)CC1 [Example 8, 4-Methyl-N-(2-((methylamino)methyl)benzyl)-N-(2-oxo-2-(((R)-2′-oxo-1,1′,2′,3-tetrahydrospiro[indene-2,3′-pyrrolo[2,3-b]pyridin]-5-yl)amino)ethyl)-1-(2-((S)-pyrrolidin-3-yl)acetyl)piperidine-4-carboxamide] | 18.2 nM
9 | CNCc1ccccc1CN(CC(=O)Nc1ccc2c(c1)C[C@@]1(C2)C(=O)Nc2ncccc21)C(=O)C1(C)CCN(C(=O)C2CCNCC2)CC1 [Example 9, (R)-4-Methyl-N-(2-((methylamino)methyl)benzyl)-N-(2-oxo-2-((2′-oxo-1,1′,2′,3-tetrahydrospiro[indene-2,3′-pyrrolo[2,3-b]pyridin]-5-yl)amino)ethyl)-1-(piperidine-4-carbonyl)piperidine-4-carboxamide] | 5.13 nM
